Test results from patent US20170008921A1, “C-3 NOVEL TRITERPENONE WITH C-28 REVERSE AMIDE DERIVATIVES AS HIV INHIBITORS” (HETERO RESEARCH FOUNDATION, priority 2015, published 2017).

Assays:
[1] = Cyto-toxicity (MTT assay); format: cell-based
[2] = Single dose oral pharmacokinetic study; format: in vivo; conditions: mouse, Mice oral PK @30 mg/kg, plasma, vehicle 10% Solutol+20% PEG; for AUC(0-t): read-out: AUC0-t; for Cmax: read-out: Cmax
Procedure: The test item was administered through oral route to animals (rat/mice) at 30 mg/kg dose in a suitable vehicle (10% Solutol+20% PEG) at 10 ml/kg dose volume. Blood samples (˜50 μL at each time point) were collected from retro-orbital plexus using K3 EDTA as anticoagulant in eppendorf tubes at defined time intervals 30 minutes, 1 hour, 2 hour, 4 hour, 8 hour, 24 hour & 48 hour under light ether anaesthesia. The samples were centrifuged at 3500×g to separate plasma and stored at −80° C. until analysis. Plasma 25 μl for Mice were processed as per described in sample preparation.
Standard solutions of the test compound 1 mg/mL solutions were prepared in DMSO and further dilutions were made in methanol. […] To the test compound plasma extraction was carried out using Acetonitrile precipitation. After reconstitution with solvent (50% Acetonitrile in Buffer) samples were analyzed by LCMSMS to get the concentrations to calculate PK Parameters.

Structure (SMILES) | viability at 4 days, 0.001 µM [1] [%] | viability at 4 days, 0.003 µM [1] [%] | viability at 4 days, 0.01 µM [1] [%] | AUC(0-t) [2] [µg·h/mL] | Cmax [2] [ng/mL] | viability at 4 days, 0.1 µM [1] [%] | viability at 4 days, 1 µM [1] [%]
CC(C)C1=C2[C@H]3CC[C@@H]4[C@@]5(C)CC[C@H](OC(=O)[C@H]6C[C@@H](C(=O)O)C6(C)C)C(C)(C)[C@@H]5CC[C@@]4(C)[C@]3(C)CC[C@@]2(NC(=O)C2(NC(=O)c3ncccn3)CCC2)CC1=O [Example 44, (1R,3S)-3-((((3aR,5aR,5bR,7aR,9S,11aR,11bR,13aS)-1-isopropyl-5a,5b,8,8,11a-pentamethyl-2-oxo-3a-(1-(pyrimidine-2-carboxamido)cyclobutane-1-carboxamido)-3,3a,4,5,5a,5b,6,7,7a,8,9,10,11,11a,11b,12,13,13a-octadecahydro-2H-cyclopenta[a]chrysen-9-yl)oxy)carbonyl)-2,2-dimethylcyclobutane-1-carboxylic acid] | 84 | 80 | 58 | 154 | 19800 |  | 
Cc1cn(-c2ccc(C(=O)NC(C)(C)C(=O)N[C@@]34CC[C@]5(C)[C@H](CC[C@@H]6[C@@]7(C)CC[C@H](OC(=O)[C@H]8C[C@@H](C(=O)O)C8(C)C)C(C)(C)[C@@H]7CC[C@]65C)C3=C(C(C)C)C(=O)C4)cc2)cn1 [Example 20, (1R,3S)-3-((((3aR,5aR,5bR,7aR,9S,11aR,11bR,13aS)-1-isopropyl-5a,5b,8,8,11a-pentamethyl-3a-(2-methyl-2-(4-(4-methyl-1H-imidazol-1-yl)benz amido)propanamido)-2-oxo-3,3a,4,5,5a,5b,6,7,7a,8,9,10,11,11a,11b,12,13,13a-octadeca hydro-2H-cyclopenta[a]chrysen-9-yl)oxy)carbonyl)-2,2-dimethylcyclobutane-1-carboxylic acid] | 91 | 85 | 40 | 236 | 19000 |  | 
CC(C)C1=C2[C@H]3CC[C@@H]4[C@@]5(C)CC[C@H](OC(=O)[C@H]6C[C@@H](C(=O)O)C6(C)C)C(C)(C)[C@@H]5CC[C@@]4(C)[C@]3(C)CC[C@@]2(NC(=O)C2(NC(=O)c3ccc(Cl)cc3)CC2)CC1=O [Example 37, (1R,3S)-3-((((3aR,5aR,5bR,7aR,9S,11aR,11bR,13aS)-3a-(1-(4-chlorobenzamido)cyclopropane-1-carboxamido)-1-isopropyl-5a,5b,8,8,11a-pentamethyl-2-oxo-3,3a,4,5,5a,5b,6,7,7a,8,9,10,11,11a,11b,12,13,13a-octadecahydro-2H-cyclopenta[a]chrysen-9-yl)oxy)carbonyl)-2,2-dimethylcyclobutane-1-carboxylic acid] |  |  | 26 | 874 | 38800 | 4 | 1
CC(C)C1=C2[C@H]3CC[C@@H]4[C@@]5(C)CC[C@H](OC(=O)[C@H]6C[C@@H](C(=O)O)C6(C)C)C(C)(C)[C@@H]5CC[C@@]4(C)[C@]3(C)CC[C@@]2(NC(=O)C(C)(C)NC(=O)c2ccc(S(C)(=O)=O)cc2)CC1=O [Example 51, (1R,3S)-3-((((3aR,5aR,5bR,7aR,9S,11aR,11bR,13aS)-1-isopropyl-5a,5b,8,8,11a-pentamethyl-3a-(2-methyl-2-(4-(methylsulfonyl)benzamido)propanamido)-2-oxo-3,3a,4,5,5a,5b,6,7,7a,8,9,10,11,11a,11b,12,13,13a-octadecahydro-2H-cyclopenta[a]chrysen-9-yl)oxy)carbonyl)-2,2-dimethylcyclobutane-1-carboxylic acid] | 86 | 85 | 37 | 277 | 32300 |  | 
CC(C)C1=C2[C@H]3CC[C@@H]4[C@@]5(C)CC[C@H](OC(=O)[C@H]6C[C@@H](C(=O)O)C6(C)C)C(C)(C)[C@@H]5CC[C@@]4(C)[C@]3(C)CC[C@@]2(NC(=O)C(C)(C)NC(=O)c2ccc(Cl)c(Cl)c2)CC1=O [Example 4, (1R,3S)-3-((((3aR,5aR,5bR,7aR,9S,11aR,11bR,13aS)-3a-(2-(3,4-dichlorobenzamido)-2-methylpropanamido)-1-isopropyl-5a,5b,8,8,11a-pentamethyl-2-oxo-3,3a,4,5,5a,5b,6,7,7a,8,9,10,11,11a,11b,12,13,13a-octadecahydro-2H-cyclopenta[a]chrysen-9-yl)oxy)carbonyl)-2,2-dimethylcyclobutane-1-carboxylic acid] |  |  | 20 | 185 | 8840 | 12 | 9
Cc1cccc(NC(=O)NC(C)(C)C(=O)N[C@@]23CC[C@]4(C)[C@H](CC[C@@H]5[C@@]6(C)CC[C@H](OC(=O)[C@H]7C[C@@H](C(=O)O)C7(C)C)C(C)(C)[C@@H]6CC[C@]54C)C2=C(C(C)C)C(=O)C3)n1 [Example 72, (1R,3S)-3-((((3aR,5aR,5bR,7aR,9S,11aR,11bR,13aS)-1-isopropyl-5a,5b,8,8,11a-pentamethyl-3a-(2-methyl-2-(3-(6-methylpyridin-2-yl)ureido)propanamido)-2-oxo-3,3a,4,5,5a,5b,6,7,7a,8,9,10,11,11a,11b,12,13,13a-octadecahydro-2H-cyclopenta[a]chrysen-9-yl)oxy)carbonyl)-2,2-dimethylcyclobutane-1-carboxylic acid] | 98 | 84 | 27 | 192 | 15300 |  | 
CC(C)C1=C2[C@H]3CC[C@@H]4[C@@]5(C)CC[C@H](OC(=O)[C@H]6C[C@@H](C(=O)O)C6(C)C)C(C)(C)[C@@H]5CC[C@@]4(C)[C@]3(C)CC[C@@]2(NC(=O)C(C)(C)NC(=O)c2ccc(F)cc2)CC1=O [Example 22, (1R,3S)-3-((((3aR,5aR,5bR,7aR,9S,11aR,11bR,13aS)-3a-(2-(4-fluorobenzamido)-2-methylpropanamido)-1-isopropyl-5a,5b,8,8,11a-pentamethyl-2-oxo-3,3a, 4,5,5a,5b,6,7,7a,8,9,10,11,11a,11b,12,13,13a-octadecahydro-2H-cyclopenta[a]chrysen-9-yl)oxy)carbonyl)-2,2-dimethylcyclobutane-1-carboxylic acid] |  |  | 21 | 490 | 23600 | 3 | 3
Cc1ccc(C(=O)NC2(C(=O)N[C@@]34CC[C@]5(C)[C@H](CC[C@@H]6[C@@]7(C)CC[C@H](OC(=O)[C@H]8C[C@@H](C(=O)O)C8(C)C)C(C)(C)[C@@H]7CC[C@]65C)C3=C(C(C)C)C(=O)C4)CC2)cn1 [Example 38, (1R,3S)-3-((((3aR,5aR,5bR,7aR,9S,11aR,11bR,13aS)-1-isopropyl-5a,5b,8,8,11a-pentamethyl-3a-(1-(6-methylnicotinamido)cyclopropane-1-carbox amido)-2-oxo-3,3a,4,5,5a,5b,6,7,7a,8,9,10,11,11a,11b,12,13,13a-octadecahydro-2H-cyclopenta[a]chrysen-9-yl)oxy)carbonyl)-2,2-dimethylcyclobutane-1-carboxylic acid] |  |  | 20 | 114 | 10100 | 9 | 2
CC(C)C1=C2[C@H]3CC[C@@H]4[C@@]5(C)CC[C@H](OC(=O)[C@H]6C[C@@H](C(=O)O)C6(C)C)C(C)(C)[C@@H]5CC[C@@]4(C)[C@]3(C)CC[C@@]2(NC(=O)C2(NC(=O)c3ccc(Cl)cc3)CCCCC2)CC1=O [Example 48, (1R,3S)-3-((((3aR,5aR,5bR,7aR,9S,11aR,11bR,13aS)-3a-(1-(4-chlorobenzamido)cyclohexane-1-carboxamido)-1-isopropyl-5a,5b,8,8,11a-pentamethyl-2-oxo-3,3a,4,5,5a,5b,6,7,7a,8,9,10,11,11a,11b,12,13,13a-octadecahydro-2H-cyclopenta[a]chrysen-9-yl)oxy)carbonyl)-2,2-dimethylcyclobutane-1-carboxylic acid] |  |  | 44 | 477 | 20300 | 12 | 4
Cc1occc1C(=O)NC(C)(C)C(=O)N[C@@]12CC[C@]3(C)[C@H](CC[C@@H]4[C@@]5(C)CC[C@H](OC(=O)[C@H]6C[C@@H](C(=O)O)C6(C)C)C(C)(C)[C@@H]5CC[C@]43C)C1=C(C(C)C)C(=O)C2 [Example 30, (1R,3S)-3-((((3aR,5aR,5bR,7aR,9S,11aR,11bR,13aS)-1-isopropyl-5a,5b,8,8,11a-pentamethyl-3a-(2-methyl-2-(2-methylfuran-3-carboxamido)propan amido)-2-oxo-3,3a,4,5,5a,5b,6,7,7a,8,9,10,11,11a,11b,12,13,13a-octadecahydro-2H-cyclopenta[a]chrysen-9-yl)oxy)carbonyl)-2,2-dimethylcyclobutane-1-carboxylic acid] |  |  | 30 | 477 | 23000 | 3 | 2
